Data published in PubChem BioAssay AID1963973 (Molecular Pharmacology Branch, DTP, NCI, 2024).

Test system: 883617-216-R-J1-PDC tumor spheroids, viability
Assay: Anticancer human tumor 883617-216-R-J1-PDC patient-derived bladder carcinoma cell line growth inhibition [PI3K]
Conditions: spheroids with HUVEC and MSC; for viability, T/C: stronger effect = lower value
From the text: Combinatorial screen of targeted agents with the PI3K inhibitors inavolisib, alpelisib, duvelisib, and copanlisib in multi-cell type tumor spheroids
A high-throughput screen of multi-cell type tumor spheroids was designed to identify active combinations of targeted small molecules and PI3K pathway inhibitors. Complex spheroids include a stromal component modeled by human endothelial cells (HUVEC) and fibroblasts modeled by human mesenchymal stem cells (MSCs). The concentration ranges selected for each drug and investigational agent were based upon clinically achievable concentrations if the clinical Cmax of the agent was known.
Compounds. The drugs and investigational agents: inavolisib (NSC800729), alpelisib (NSC765974), duvelisib (NSC772469), copanlisib (NSC816437), ipatasertib (NSC767898), afuresertib (NSC778305), talazoparib (NSC767125), sapanisertib (NSC764658), selumetinib (NSC741078), tovorafenib (DAY101, NSC766906), vemurafenib (NSC761431), ravoxertinib (NSC781343), sotorasib (NSC818433), MRTX1133 (NSC 836407), abemaciclib (NSC 768073), palbociclib (NSC758247), venetoclax (NSC 766270), SY5609 (NSC837396), enzalutamide (NSC755605), and darolutamide (NSC825331), were obtained from the National Cancer Institute (NCI) Developmental Therapeutics Program Chemical Repository. The FDA-approved anticancer drug set is available from the NCI Developmental Therapeutics Program. […] The stock solutions were prepared in dimethyl sulfoxide (DMSO, Sigma-Aldrich, St. Louis, MO, cat. D2650) at 800-fold the tested concentration and stored at -70 degrees C prior to their use. All drugs and investigational agents were tested over a range starting from a high concentration at or near the clinical Cmax and decreasing in half-log increments. If the clinical Cmax for an agent had not been determined, the highest concentration tested was 10 microM.
Cell Culture. All cells were maintained in an incubator at 37 degrees C and 5% CO2 with 95% humidity. The PDC lines were cultured according to standard operating procedures established by the NCI PDMR (https://pdmr.cancer.gov/sops/default.htm). All PDCs were thawed and cultured in Matrigel-coated flasks prepared with a working solution of 1X Ham's F-12 nutrient mix, without supplementation (Invitrogen, Waltham, MA, cat. 11765054), 100 U/mL penicillin-streptomycin (Invitrogen, cat. 15140122), and 2.5% Matrigel (Corning Inc., Corning, NY, cat. 354248) for the first three passages. The 354836-022-R-J1-PDC, 475296-252-R-J1-PDC, and 997726-040-R-J2-PDC lines were cultured in 6A media, which includes advanced DMEM/F-12 (Thermo Fisher Scientific, cat. 12634028), 10 mM HEPES (Thermo Fisher Scientific, cat. 15630080), 1X GlutaMAX supplement (Thermo Fisher Scientific, cat. 35050061), 0.1 mg/mL primocin (InvivoGen, San Diego, CA, cat. ant-pm-2), 10% defined fetal bovine serum, heat inactivated (HyClone Laboratories Inc., Logan, UT, cat. SH30070.03HI), 50% L-WRN conditioned media (ATCC, cat. CRL-3276), 1.25 mM N-Acetyl-L-cysteine (Sigma-Aldrich, cat. A9165), 10 mM nicotinamide (Sigma-Aldrich, cat. N0636), 1X B-27 supplement (Thermo Fisher Scientific, cat. 17504044), 1X N-2 supplement (Thermo Fisher Scientific, cat. 17502048), and 10 microM Y-27632 dihydrochloride (Tocris Bioscience, Bristol, United Kingdom, cat. 1254). The 624824-186-R-J2-PDC line was cultured in 6C/Colon 1B media, which includes all 6A media components plus 50 ng/mL human EGF recombinant protein (Thermo Fisher Scientific, cat. PHG0311). […]
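Also: spheroids exposed to agents for 7 days before the viability read.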

SMILES: Cn1cnc2c(F)c(Nc3ccc(Br)cc3Cl)c(C(=O)NOCCO)cc21 + CC(Nc1ncnc2nc[nH]c12)c1cc2cccc(Cl)c2c(=O)n1-c1ccccc1
- IC50 (curve of first compound, second compound 0.0316 µM): 43.1 nM
- IC50 (curve of first compound, second compound 0.1 µM): 39.3 nM
- IC50 (curve of first compound, second compound 0.316 µM): 32.7 nM
- IC50 (curve of first compound, second compound 1 µM): 22.7 nM
- IC50 (curve of first compound, second compound 3.16 µM): 9.6 nM
- IC50 (curve of first compound, second compound 10 µM): < 9.49 nM
- viability, T/C (second compound 0.0316 µM, first compound 0.00949 µM): 64.3%
- viability, T/C (second compound 0.0316 µM, first compound 0.03 µM): 56.1%
- viability, T/C (second compound 0.0316 µM, first compound 0.0949 µM): 39.5%
- viability, T/C (second compound 0.0316 µM, first compound 0.3 µM): 33.4%
- viability, T/C (second compound 0.0316 µM, first compound 0.949 µM): 33.5%
- viability, T/C (second compound 0.0316 µM, first compound 3 µM): 19.9%
- viability, T/C (second compound 0.1 µM, first compound 0.00949 µM): 66.4%
- viability, T/C (second compound 0.1 µM, first compound 0.03 µM): 55%
- viability, T/C (second compound 0.1 µM, first compound 0.0949 µM): 35.6%
- viability, T/C (second compound 0.1 µM, first compound 0.3 µM): 28.8%
- viability, T/C (second compound 0.1 µM, first compound 0.949 µM): 30%
- viability, T/C (second compound 0.1 µM, first compound 3 µM): 19.7%
- viability, T/C (second compound 0.316 µM, first compound 0.00949 µM): 68.8%
- viability, T/C (second compound 0.316 µM, first compound 0.03 µM): 51%
- viability, T/C (second compound 0.316 µM, first compound 0.0949 µM): 37.8%
- viability, T/C (second compound 0.316 µM, first compound 0.3 µM): 28.4%
- viability, T/C (second compound 0.316 µM, first compound 0.949 µM): 23.9%
- viability, T/C (second compound 0.316 µM, first compound 3 µM): 19.6%
- viability, T/C (second compound 1 µM, first compound 0.00949 µM): 60%
- viability, T/C (second compound 1 µM, first compound 0.03 µM): 44.9%
- viability, T/C (second compound 1 µM, first compound 0.0949 µM): 39.4%
- viability, T/C (second compound 1 µM, first compound 0.3 µM): 28%
- viability, T/C (second compound 1 µM, first compound 0.949 µM): 22.4%
- viability, T/C (second compound 1 µM, first compound 3 µM): 19%
- viability, T/C (second compound 3.16 µM, first compound 0.00949 µM): 50.3%
- viability, T/C (second compound 3.16 µM, first compound 0.03 µM): 37%
- viability, T/C (second compound 3.16 µM, first compound 0.0949 µM): 23.2%
- viability, T/C (second compound 3.16 µM, first compound 0.3 µM): 20.6%
- viability, T/C (second compound 3.16 µM, first compound 0.949 µM): 19%
- viability, T/C (second compound 3.16 µM, first compound 3 µM): 11%
- viability, T/C (second compound 10 µM, first compound 0.00949 µM): 31.2%
- viability, T/C (second compound 10 µM, first compound 0.03 µM): 24.7%
- viability, T/C (second compound 10 µM, first compound 0.0949 µM): 17.8%
- viability, T/C (second compound 10 µM, first compound 0.3 µM): 13.3%
- viability, T/C (second compound 10 µM, first compound 0.949 µM): 12.4%
- viability, T/C (second compound 10 µM, first compound 3 µM): 8.11%

SMILES: CC1(C)CCC(Nc2ncc(C(F)(F)F)c(-c3c[nH]c4c(P(C)(C)=O)c(C#N)ccc34)n2)CN1 (centres undefined)
- viability, T/C (compound 0.0316 µM): 38% [middle of 4 runs]
- viability, T/C (compound 0.1 µM): 31.7% [middle of 4 runs]
- viability, T/C (compound 0.316 µM): 28.7% [middle of 4 runs]
- viability, T/C (compound 1 µM): 30% [middle of 4 runs]
- viability, T/C (compound 3.16 µM): 16.9% [middle of 4 runs]
- viability, T/C (compound 10 µM): 0.37% [middle of 4 runs]
- IC50 (curve of compound): < 31.6 nM
